According to the Kinase Knowledgebase extract (Sharma et al. 2016):

Target: MAPK14 (human) (UniProt Q16539)
Assay: Inhibition of MAPK14 Kinase Activity

Chain of MAPK14 (human) (Q16539 whole entry, looked up): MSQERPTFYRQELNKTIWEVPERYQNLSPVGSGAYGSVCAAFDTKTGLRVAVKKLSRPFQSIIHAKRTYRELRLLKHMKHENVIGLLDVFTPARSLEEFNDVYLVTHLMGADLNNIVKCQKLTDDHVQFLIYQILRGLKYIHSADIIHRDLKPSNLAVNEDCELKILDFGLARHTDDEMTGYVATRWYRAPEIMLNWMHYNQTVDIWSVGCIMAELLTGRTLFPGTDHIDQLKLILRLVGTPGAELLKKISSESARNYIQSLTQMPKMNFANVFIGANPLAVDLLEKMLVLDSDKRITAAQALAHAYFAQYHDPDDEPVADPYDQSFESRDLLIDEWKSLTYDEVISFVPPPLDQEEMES

Row | SMILES | IC50 [nM]
1 | C=CCn1ncc2cc(C(=O)c3ccc(F)cc3F)ccc21 | < 500
2 | CC(C)Cn1ncc2cc(C(O)c3ccc(F)cc3Cl)ccc21 (stereo not drawn) | < 500
3 | CC(C)Cn1ncc2cc(Oc3ccc(F)cc3)c(C(=O)NCCN(C)C)cc21 | < 500
4 | CC(C)Cn1ncc2cc(C(=O)c3ccc(F)cc3)ccc21 | < 500
5 | CCON=C(c1ccc(F)cc1)c1ccc2c(cnn2CC(C)C)c1 | < 500
6 | CON=C(c1ccc(F)cc1)c1ccc2c(cnn2CC(C)C)c1 | < 500
7 | CC(C)Cn1ncc2cc(C(O)c3ccc(F)cc3F)ccc21 (stereo not drawn) | < 500
8 | CC(C)Cn1ncc2cc(C(O)c3ccc(Cl)cc3F)ccc21 (stereo not drawn) | < 500
9 | COC(=O)C(CCN)NC(=O)c1cc2c(cnn2CC(F)(F)F)cc1Oc1ccc(F)cc1 (stereo not drawn) | < 500
10 | CS(=O)(=O)n1ncc2cc(C(=NO)c3ccc(F)cc3F)ccc21 | < 500
11 | CC(C)Cn1ncc2cc(C(=O)c3ccc(Cl)cc3F)ccc21 | < 500
12 | O=C(c1ccc2c(cnn2CC(F)(F)F)c1)c1ccc(F)cc1F | < 500
13 | Cc1ccccc1C(=O)c1ccc2c(cnn2CC(C)C)c1 | < 500
14 | CC(C)Cn1ncc2cc(C(=NO)c3ccc(F)cc3F)ccc21 | < 500
15 | CC(C)Cn1ncc2cc(Nc3ccc(F)cc3F)ccc21 | < 500
16 | CON=C(c1ccc2c(cnn2CC(F)(F)F)c1)c1ccc(F)cc1F | < 500
17 | CC(C)Cn1ncc2cc(Nc3ccc(F)cc3)ccc21 | < 500

Row | SMILES | IC50 [nM]
18 | CN(C)CCNC(=O)c1cc2c(cnn2CC(F)(F)F)cc1Oc1ccc(F)cc1 | < 500
19 | COC(=O)C(CCN)NC(=O)c1cc2c(cnn2CC(C)C)cc1Oc1ccc(F)cc1 (stereo not drawn) | < 500
20 | Cc1ccccc1C(O)c1ccc2c(cnn2CC(C)C)c1 (stereo not drawn) | < 500
21 | CC(C)Cn1ncc2cc(C(=O)c3ccc(F)cc3F)ccc21 | < 500
22 | CC(C)Cn1ncc2cc(C(O)c3ccc(F)cc3)ccc21 (stereo not drawn) | < 500
23 | CC(C)Cn1ncc2cc(C(=NOCc3ccccc3)c3ccc(F)cc3F)ccc21 | < 500
24 | CC(C)Cn1ncc2cc(C(=NO)c3ccc(F)cc3)ccc21 | < 500
25 | CC(C)Cn1ncc2cc(C(=O)c3ccc(F)cc3Cl)ccc21 | < 500
26 | CON=C(c1ccc2c(cnn2S(C)(=O)=O)c1)c1ccc(F)cc1F | < 500
27 | CCON=C(c1ccc2c(cnn2CC(C)C)c1)c1ccc(F)cc1F | < 500
28 | CC(C)Cn1ncc2cc(C(O)c3ccc(Cl)cc3Cl)ccc21 (stereo not drawn) | < 500
29 | CC(C)Cn1ncc2cc(Oc3ccc(F)cc3)c(C(N)=O)cc21 | < 500
30 | Cc1ccccc1Nc1ccc2c(cnn2CC(C)C)c1 | < 500
31 | C=CCn1ncc2cc(C(=NO)c3ccc(F)cc3F)ccc21 | < 500
32 | ON=C(c1ccc2c(cnn2CC(F)(F)F)c1)c1ccc(F)cc1F | < 500
33 | CC(C)Cn1ncc2cc(C(=O)c3ccc(Cl)cc3Cl)ccc21 | < 500
